The source of these data is patent US20260125727A1, “METHOD FOR PRODUCING A COMPOSITION, A COMPOSITION COMPRISING AN OLIGOSACCHARIDE OBTAINED THEREBY, AND USES THEREOF” (MEIJI CO., LTD., priority 2022, published 2026).

The subject of one series is Bifidobacterium bacteria. As to the kind of experiment: Promotion of growth of Bifidobacterium bacteria in the intestinal microbiota. The following applies: studies of the inventors, no method given.
In another series the test system is Parabacteroides bacteria. As to the kind of experiment: Promotion of growth of Parabacteroides bacteria in the intestinal microbiota. The note with it: studies of the inventors, no method given.
Series [1] is described as follows: Evaluation of thermal stability of aqueous solution (residual ratio of galactosylkojibiose after heat treatment, HPLC). It is filed as physicochemical. The note with it: for change of galactosylkojibiose HPLC peak after heat treatment: 120° C. for 20 minutes, 12 wt % solution in buffer. The protocol: Buffers having various pH values (100 mM citrate-phosphate buffer for pH 3 to 6 and 100 mM phosphate buffer for pH 6 to 8) were used to dissolve the purified and fractionated galactosylkojibiose obtained in Example 3 so that the resulting solutions should have 12° Bx (12 wt %). The solutions were subjected to a heat treatment at 60° C., 80° C., 100° C., and 120° C. for 20 minutes by using an autoclave, and then residual ratio of galactosylkojibiose was evaluated.
The residual ratio was calculated from the results obtained by using HPLC method performed under the following conditions. • Column: SUPELCO apHera™ NH2 HPLC Column • Mobile phase: 68% acetonitrile • Column temperature: 35° C. • Flow rate: 1.0 mL/min • Detection: RI

As for `OCC1O[C@H](OC2C(O)[C@H](O[C@@H]3OC(CO)[C@H](O)C(O)C3O)C(CO)O[C@H]2O)C(O)C(O)[C@@H]1O` (stereo partly drawn) [galactosylkojibiose, α-D-glucopyranosyl-(1→2)-[β-D-galactopyranosyl-(1→4)-]D-glucopyranoside], in the series on Bifidobacterium bacteria, the “growth of Bifidobacterium bacteria in the intestinal microbiota” value is given as “promote the growth”. Besides, the “growth of Parabacteroides bacteria in the intestinal microbiota” value in the series with Parabacteroides bacteria is listed as “promote the growth”. For the same compound, the “decay of galactosylkojibiose after heat treatment” value in series [1] (60° C. for 20 minutes, any pH value (pH 3 to 8)) is recorded as “not observed”. Besides, the “change of galactosylkojibiose HPLC peak after heat treatment” value in series [1] (pH 6 or lower) is “no significant change”; in series [1] (pH 7 or higher, new peak at around 12.1 minutes), “decay of the chromatographic peak”.

In the case of `OCC1O[C@H](OC2[C@H](O)OC(CO)[C@@H](O)[C@@H]2O)C(O)[C@@H](O)[C@@H]1O` (stereo partly shown) [kojibiose], in the series with Bifidobacterium bacteria, the “growth of Bifidobacterium bacteria in the intestinal microbiota” value is on record as “promote the growth”. The “growth of Parabacteroides bacteria in the intestinal microbiota” value with Parabacteroides bacteria is on record as “promote the growth”.
